Measured values taken from patent US20250248998A1, “LRRK2 Inhibitors” (Brenig Therapeutics, Inc., priority 2022, published 2025).
pIC50, pKi: −log10 of the molar value.

Assays:
LRRK2 WT [1] = biological target: T1, LRRK2 WT (Homo sapiens, UniProt Q5S007); assay: Enzymatic activity inhibition against LRRK2 WT (ADP-Glo kinase assay, LRRKtide substrate); type: biochemical; set-up: purchased SignalChem Biotech, Inc. L10-11G-10; conditions: recombinant LRRK2 WT 36 nM, ATP, 1 h at rt, average Ki
Description: Example B. Primary Assays Used to Determine Potency of the LRRK2 Inhibition
Assay for Determining Enzymatic Activity Inhibition Against LRRK2 WT.
Compound activity was determined using recombinant LRRK2 WT protein (SignalChem Biotech, Inc., Cat #L10-11G-10) and LRRKtide substrate (SignalChem Biotech, Inc., Cat #L10-58) in an in vitro enzymatic reaction. The enzymatic reaction was carried out in assay buffer (40 mM TRIS-HCl pH 7.4, 20 mM MgCl2, 0.05 mM DTT, 0.1 mg/mL BSA). The compounds were dispensed into a 384 well Diamond Well Plate (Axigen, Cat #P-384-120SQ-C-S) using the Biomek FX liquid handling system at 80× solutions of compounds in DMSO. The 2× Protein-Substrate mix (final concentration 36 nM of LRRK2 WT and 0.8 μg/μL of LRRKtide) was prepared in the 1× Assay buffer and 4 μL of mixture per well was added into the 384-well white Reaction plate with NBS (Corning, Cat #CLS4513). The 4 μL of LRRKtide substrate w/o LRRK2 WT in the 1× buffer was used for a negative control. Plates were centrifuged for 1 min at 200 g. Next the compounds were added to Reaction plate using Biomek station via following steps: 1 μL of 80× compounds (in DMSO) were mixed thoroughly with 39 μL of 2×10 μM ATP in Assay Buffer, then 4 μL of this mixture was added to Reaction plate with 4 μL of Protein-Substrate mix. Plates were centrifuged for 1 min at 200 g and incubated for 1 hour at rt. Then, 4 μL per well of ADP-Glo reagent (Promega, ADP-Glo™ Kinase Assay, Cat #V9102) was added. Plates were incubated for 30 minutes at rt. Then, 8 μL per well of Kinase detection reagent (Promega, ADP-Glo™ Kinase Assay, Cat #V9102) was added and the luminescence signal was measured with a microplate reader. The % inhibition was then used to calculate the Ki values. The average Ki values are shown in Table B, wherein “A” corresponds to Ki<10.0 nM, “B” corresponds to 10.0 nM K Ki<20.0 nM, “C” 20.0 nM K Ki<50.0 nM, “D” corresponds to 50.0 nM K Ki<100.0 nM and “E” corresponds to Ki>100.0 nM.
Target sequence in this assay (Q5S007 970-2527 limits assumed): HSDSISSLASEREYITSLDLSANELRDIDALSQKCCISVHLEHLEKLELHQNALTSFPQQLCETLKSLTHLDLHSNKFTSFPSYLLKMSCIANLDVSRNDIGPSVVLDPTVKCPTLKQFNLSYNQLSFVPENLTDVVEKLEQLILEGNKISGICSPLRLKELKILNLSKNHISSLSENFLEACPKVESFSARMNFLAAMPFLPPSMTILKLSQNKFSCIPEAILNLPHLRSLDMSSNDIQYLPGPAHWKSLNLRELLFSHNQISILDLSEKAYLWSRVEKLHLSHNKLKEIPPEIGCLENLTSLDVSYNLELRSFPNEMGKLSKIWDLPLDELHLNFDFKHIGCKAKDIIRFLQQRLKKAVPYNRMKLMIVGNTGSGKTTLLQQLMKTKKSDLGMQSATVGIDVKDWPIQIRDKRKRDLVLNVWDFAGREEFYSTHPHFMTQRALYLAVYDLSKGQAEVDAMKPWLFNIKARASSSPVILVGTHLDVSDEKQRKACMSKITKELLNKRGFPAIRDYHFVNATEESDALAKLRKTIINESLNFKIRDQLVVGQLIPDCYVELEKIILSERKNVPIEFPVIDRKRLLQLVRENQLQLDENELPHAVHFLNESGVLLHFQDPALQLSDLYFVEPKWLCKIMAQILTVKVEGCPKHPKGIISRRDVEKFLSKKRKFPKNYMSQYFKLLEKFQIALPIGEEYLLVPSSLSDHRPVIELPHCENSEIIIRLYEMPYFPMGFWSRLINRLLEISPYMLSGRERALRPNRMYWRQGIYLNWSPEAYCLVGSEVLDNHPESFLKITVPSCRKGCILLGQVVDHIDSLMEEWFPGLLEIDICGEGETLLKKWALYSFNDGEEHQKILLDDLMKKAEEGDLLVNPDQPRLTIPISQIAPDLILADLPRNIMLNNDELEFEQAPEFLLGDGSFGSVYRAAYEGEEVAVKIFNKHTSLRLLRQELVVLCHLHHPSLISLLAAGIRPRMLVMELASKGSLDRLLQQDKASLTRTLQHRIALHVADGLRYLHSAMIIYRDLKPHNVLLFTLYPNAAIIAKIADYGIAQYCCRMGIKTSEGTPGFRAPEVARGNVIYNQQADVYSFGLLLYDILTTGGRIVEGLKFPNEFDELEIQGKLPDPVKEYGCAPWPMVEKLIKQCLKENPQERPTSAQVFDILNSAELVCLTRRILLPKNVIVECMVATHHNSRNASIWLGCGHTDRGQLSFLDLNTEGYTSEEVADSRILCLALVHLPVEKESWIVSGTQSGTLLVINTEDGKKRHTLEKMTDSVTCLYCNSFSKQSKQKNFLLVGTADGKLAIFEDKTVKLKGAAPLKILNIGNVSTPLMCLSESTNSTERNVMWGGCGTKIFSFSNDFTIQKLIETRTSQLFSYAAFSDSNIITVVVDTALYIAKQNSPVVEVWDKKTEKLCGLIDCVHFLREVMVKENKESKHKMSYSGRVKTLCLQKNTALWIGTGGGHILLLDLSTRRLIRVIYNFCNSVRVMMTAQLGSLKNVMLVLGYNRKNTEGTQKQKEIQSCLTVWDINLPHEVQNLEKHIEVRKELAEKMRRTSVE

[2] = A549 cytotoxicity assay (CellTiter-Glo); type: cell-based; conditions: human, A549 cells, 3 days of incubation
Description: Example D. A549 Cytotoxicity Assay Used to Determine Safety of the LRRK2 Inhibitors
A549 (ATCC, CCL-185) cells were seeded at a density of 4000 cells per well in a 384-well clear bottom plate (Greiner Cat #781090) in 45 μL total volume of the complete cell culture medium DMEM (PanEco, Cat #C420, Russia) with 10% FBS (HyClone Cat #SV30160.03). The cells were allowed to adhere overnight at 37° C., 5% CO2. The 500× compounds solutions in DMSO (Sigma Cat #D2650) were prepared in the compounds plate (Diamond Well Plate, Axigen, Cat #P-384-120SQ-C-S) and DMSO as a vehicle control was included. The 1 μL aliquot of 500× compounds (Compounds plate) was added to the 49 μL culture medium in the Dilution plate (Diamond Well Plate, Axigen, Cat #P-384-120SQ-C-S), mixed and then the 5 μL aliquots of the 10× compounds solutions was transferred to cells followed by centrifugation at 100 g for 1 min. Final DMSO concentration was 0.2%. After 3 days of incubation the 10 μL per well of CellTiter-Glo (Promega, CAT #G7572) was added to the cells, plate was centrifuged at 100 g for 1 min. The luminescence signal was detected with CLARIOstar Plus (BMG LABTECH) microplate reader.

LRRK2 WT [3] = biological target: T1, LRRK2 WT; assay: Cell-based NanoBRET target engagement assay in HEK293 cells transfected with LRRK2 WT-NanoLuc fusion vector; set-up: expressed in transfected cells; host or cells: HEK293 (ATCC); conditions: compound treatment 1 h
Description: (§1) Example C. Cell-Based NanoBRET Target Engagement Assay in 11EK293 Cells Transiently Transfected with LRRK2 WT- or LRRK2 (G2019S)-Nano Luc Fusion Vector
(§2) H1EK293 (ATCC) cells were transfected with […] LRRK2 WT or LRRK2 (G2019S) and 9 μg transfection carrier DNA. The transfected cells were treated with the compounds (starting at 1 μM, 10-dose with 3-fold dilution) and reference compounds CEP-701 or Staurosporine (starting at 1 μM, 10-dose with 3-fold dilution); compound treatment time: 1 h. LRRK2 WT and LRRK2 (G2019S) target engagement was measured by NanoBRET assay. Curve fits were performed only when % NanoBret signal at the highest concentration of compounds was less than […]. Assay format: 384-well format, 4000 cells/well. The IC50 values are shown in Table C, wherein “A” corresponds to IC50≤50.0 nM, “B” corresponds to 50.0 nM≤IC50<100.0 nM, “C” corresponds to 100.0 nM≤IC50.
Target sequence in this assay (Q5S007 whole entry): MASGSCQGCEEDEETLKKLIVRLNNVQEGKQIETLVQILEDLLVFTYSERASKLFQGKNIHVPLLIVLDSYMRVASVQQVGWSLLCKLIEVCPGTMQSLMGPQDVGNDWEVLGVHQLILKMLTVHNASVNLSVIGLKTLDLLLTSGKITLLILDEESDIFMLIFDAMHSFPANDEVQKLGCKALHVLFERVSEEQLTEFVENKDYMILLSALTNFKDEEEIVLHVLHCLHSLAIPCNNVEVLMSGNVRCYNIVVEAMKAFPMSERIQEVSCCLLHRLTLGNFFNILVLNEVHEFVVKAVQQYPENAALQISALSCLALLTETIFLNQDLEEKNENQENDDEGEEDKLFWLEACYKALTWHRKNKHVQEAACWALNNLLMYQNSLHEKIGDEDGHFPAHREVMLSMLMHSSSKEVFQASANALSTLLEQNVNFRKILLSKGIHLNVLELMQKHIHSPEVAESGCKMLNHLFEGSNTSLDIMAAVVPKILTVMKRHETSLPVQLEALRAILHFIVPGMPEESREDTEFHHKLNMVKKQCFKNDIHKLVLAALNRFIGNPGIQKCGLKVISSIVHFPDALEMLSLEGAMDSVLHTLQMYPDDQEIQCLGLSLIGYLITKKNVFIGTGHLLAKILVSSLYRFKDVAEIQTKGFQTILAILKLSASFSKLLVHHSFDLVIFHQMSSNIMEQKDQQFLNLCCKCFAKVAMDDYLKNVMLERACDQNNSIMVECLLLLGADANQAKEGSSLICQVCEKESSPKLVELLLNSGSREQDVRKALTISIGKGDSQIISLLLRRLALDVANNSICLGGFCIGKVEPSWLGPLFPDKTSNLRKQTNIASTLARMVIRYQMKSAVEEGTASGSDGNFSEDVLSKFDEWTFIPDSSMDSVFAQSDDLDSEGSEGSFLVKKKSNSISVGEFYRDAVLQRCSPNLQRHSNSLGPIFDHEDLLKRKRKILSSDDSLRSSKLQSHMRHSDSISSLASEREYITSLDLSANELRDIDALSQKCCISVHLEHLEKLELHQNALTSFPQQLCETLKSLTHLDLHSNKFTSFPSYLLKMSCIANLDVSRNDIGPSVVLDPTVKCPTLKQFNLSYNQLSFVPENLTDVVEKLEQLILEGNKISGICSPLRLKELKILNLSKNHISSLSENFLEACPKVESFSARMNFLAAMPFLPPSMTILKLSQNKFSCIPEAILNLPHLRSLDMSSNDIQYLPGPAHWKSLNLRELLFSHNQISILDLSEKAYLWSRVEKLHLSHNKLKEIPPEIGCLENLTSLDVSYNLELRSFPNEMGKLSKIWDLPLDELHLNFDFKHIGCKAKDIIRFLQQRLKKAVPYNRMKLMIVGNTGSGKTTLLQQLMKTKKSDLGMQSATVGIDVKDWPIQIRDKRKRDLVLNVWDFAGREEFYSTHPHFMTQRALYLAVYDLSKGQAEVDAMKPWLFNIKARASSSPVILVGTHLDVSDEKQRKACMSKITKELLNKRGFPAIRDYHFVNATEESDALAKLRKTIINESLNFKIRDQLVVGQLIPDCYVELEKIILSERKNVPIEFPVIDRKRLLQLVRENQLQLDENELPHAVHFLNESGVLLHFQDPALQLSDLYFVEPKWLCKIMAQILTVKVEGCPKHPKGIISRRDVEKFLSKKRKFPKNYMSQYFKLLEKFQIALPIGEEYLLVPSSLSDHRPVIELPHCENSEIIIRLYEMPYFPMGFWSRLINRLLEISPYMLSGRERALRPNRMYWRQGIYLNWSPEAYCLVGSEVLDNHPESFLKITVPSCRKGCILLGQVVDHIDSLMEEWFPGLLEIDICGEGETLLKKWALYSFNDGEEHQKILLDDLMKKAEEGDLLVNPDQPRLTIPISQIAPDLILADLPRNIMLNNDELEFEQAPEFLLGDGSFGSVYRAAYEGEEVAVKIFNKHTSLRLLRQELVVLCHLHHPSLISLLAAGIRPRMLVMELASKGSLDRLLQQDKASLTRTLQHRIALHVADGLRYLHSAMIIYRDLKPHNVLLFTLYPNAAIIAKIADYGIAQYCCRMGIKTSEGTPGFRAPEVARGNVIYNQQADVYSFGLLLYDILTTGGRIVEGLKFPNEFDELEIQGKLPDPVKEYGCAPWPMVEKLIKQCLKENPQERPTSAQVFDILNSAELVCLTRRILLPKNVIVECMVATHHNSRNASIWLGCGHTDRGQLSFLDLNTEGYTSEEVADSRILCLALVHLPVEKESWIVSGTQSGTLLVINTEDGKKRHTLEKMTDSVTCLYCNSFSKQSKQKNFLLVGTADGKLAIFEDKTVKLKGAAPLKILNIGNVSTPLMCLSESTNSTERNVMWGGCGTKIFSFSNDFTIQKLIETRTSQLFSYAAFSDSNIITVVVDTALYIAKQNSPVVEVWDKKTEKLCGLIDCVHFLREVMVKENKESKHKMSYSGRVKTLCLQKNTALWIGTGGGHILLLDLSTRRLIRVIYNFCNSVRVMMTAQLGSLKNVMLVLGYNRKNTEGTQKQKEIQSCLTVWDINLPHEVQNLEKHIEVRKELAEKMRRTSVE

LRRK2[G2019S] [4] = biological target: T2, LRRK2[G2019S] (Homo sapiens, UniProt Q5S007, G2019S); assay: Enzymatic activity inhibition against LRRK2[G2019S] (ADP-Glo kinase assay, LRRKtide substrate); type: biochemical; set-up: purchased SignalChem Biotech, Inc. L10-12GG-10; conditions: recombinant LRRK2[G2019S] 36 nM, ATP, 1 h at rt, average Ki
Description: Example A. Primary Assays Used to Determine Potency of the LRRK2 Inhibition
Assay for Determining Enzymatic Activity Inhibition Against LRRK2[G2019S].
Compound activity was determined using recombinant LRRK2[G2019S] protein (SignalChem Biotech, Inc., Cat #L10-12GG-10) and LRRKtide substrate (SignalChem Biotech, Inc., Cat #L10-58) in an in vitro enzymatic reaction. The enzymatic reaction was carried out in assay buffer (40 mM TRIS-HCl pH 7.4, 20 mM MgCl2, 0.05 mM DTT, 0.1 mg/mL BSA). The compounds were dispensed into a 384 well Diamond Well Plate (Axigen, Cat #P-384-120SQ-C-S) using the Biomek FX liquid handling system at the 80× solutions of compounds in DMSO. The 2× Protein-Substrate mix (final concentration 36 nM of LRRK2[G2019S] and 0.8 μg/μL of LRRKtide) was prepared in 1× Assay buffer and 4 μL of mixture per well was added into the 384-well white Reaction plate with NBS (Corning, Cat #CLS4513). The 4 μL of LRRKtide substrate w/o LRRK2[G2019S] in the 1× buffer was used for a negative control. Plates were centrifuged for 1 min at 200 g. Next the compounds were added to the reaction plate using Biomek station via following steps: 1 μL of 80× compounds (in DMSO) were mixed thoroughly with 39 μL of 2×10 μM ATP in Assay Buffer, then 4 μL of this mixture was added to Reaction plate with 4 μL of Protein-Substrate mix. Plates were centrifuged for 1 min at 200 g and incubated for 1 h at rt. Then, 4 μL per well of ADP-Glo reagent (Promega, ADP-Glo™ Kinase Assay, Cat #V9102) was added. Plates were incubated for 30 min at rt. Then, 8 μL per well of Kinase detection reagent (Promega, ADP-Glo™ Kinase Assay, Cat #V9102) was added and the luminescence signal was measured with a microplate reader. The luminescence signal was detected with CLARIOstar Plus (BMG LABTECH) microplate reader. The % inhibition was then used to calculate the Ki values. The average Ki values are shown in Table A, wherein “A” corresponds to Ki<5.0 nM, “B” corresponds to 5.0 nM≤Ki<10.0 nM, “C” 10.0 nM≤Ki<50.0 nM, “D” corresponds to 50.0 nM≤Ki<100.0 nM and “E” corresponds to Ki>100.0 nM.
Target sequence in this assay (Q5S007 970-2527 G2019S limits assumed): as the sequence (Q5S007 970-2527 limits assumed) above, with G1050S counted along it

LRRK2[G2019S] [5] = biological target: T2, LRRK2[G2019S]; assay: Cell-based NanoBRET target engagement assay in HEK293 cells transfected with LRRK2 (G2019S)-NanoLuc fusion vector; set-up: expressed in transfected cells; host or cells: HEK293 (ATCC); conditions: compound treatment 1 h
Description: as §1, §2
Target sequence in this assay (Q5S007 whole entry G2019S): as the sequence (Q5S007 whole entry) above, with G2019S counted along it

CC1CCN(c2cc(-c3n[nH]c4ccc(OC(C)C)cc34)cnn2)C1 (stereo not drawn) [Compound 3, 5-isopropoxy-3-[6-(3-methylpyrrolidin-1-yl)pyridazin-4-yl]-1H-indazole]
pKi (LRRK2 WT [1]): ≥ 8.00 | CC50 at 3 days [2]: > 10000 nM | pIC50 (LRRK2 WT [3]): ≤ 7.00 | pKi (LRRK2[G2019S] [4]): ≥ 8.30 | pIC50 (LRRK2[G2019S] [5]): ≤ 7.00

CC(C)Cn1nc(-c2n[nH]c3ccc(OC(C)C)cc23)cc(N2CCOCC2)c1=O [Compound 18, 2-isobutyl-6-(5-isopropoxy-1H-indazol-3-yl)-4-morpholino-pyridazin-3-one]
pKi (LRRK2 WT [1]): ≥ 8.00 | pIC50 (LRRK2 WT [3]): ≤ 7.00 | pKi (LRRK2[G2019S] [4]): 8.00 to 8.30 | pIC50 (LRRK2[G2019S] [5]): ≤ 7.00

Cn1nc(-c2n[nH]c3ccc(OC4(C)CC4)cc23)cc(N2CCC3(CCC3)C2)c1=O [Compound 56, 4-(6-azaspiro[3.4]octan-6-yl)-2-methyl-6-[5-(1-methylcyclopropoxy)-1H-indazol-3-yl]pyridazin-3-one]
pKi (LRRK2 WT [1]): ≥ 8.00 | CC50 at 3 days [2]: > 10000 nM | pIC50 (LRRK2 WT [3]): ≥ 7.30 | pKi (LRRK2[G2019S] [4]): ≥ 8.30 | pIC50 (LRRK2[G2019S] [5]): ≥ 7.30

Cn1nc(-c2n[nH]c3ccc(OC4(C)CC4)cc23)cc(N2CCOCC2)c1=O [Compound 27, 2-methyl-6-[5-(1-methylcyclopropoxy)-1H-indazol-3-yl]-4-morpholino-pyridazin-3-one]
pKi (LRRK2 WT [1]): ≥ 8.00 | CC50 at 3 days [2]: > 27000 nM | pIC50 (LRRK2 WT [3]): ≥ 7.30 | pKi (LRRK2[G2019S] [4]): ≥ 8.30 | pIC50 (LRRK2[G2019S] [5]): ≥ 7.30

CC(C)Oc1ccc2[nH]nc(-c3cc(N4CCOCC4)c(=O)n(C4CCCC4)n3)c2c1 [Compound 16, 2-cyclopentyl-6-(5-isopropoxy-1H-indazol-3-yl)-4-morpholino-pyridazin-3-one]
pKi (LRRK2 WT [1]): ≥ 8.00 | pIC50 (LRRK2 WT [3]): 7.00 to 7.30 | pKi (LRRK2[G2019S] [4]): 8.00 to 8.30 | pIC50 (LRRK2[G2019S] [5]): ≥ 7.30

Cn1nc(-c2n[nH]c3ccc(OC4(C)CC4)cc23)cc(N2CC(C)(C)C3COCC32)c1=O (stereo not drawn) [Compound 48, 4-(3,3-dimethyl-3a,4,6,6a-tetrahydro-2H-furo[3,4-b]pyrrol-1-yl)-2-methyl-6-[5-(1-methylcyclopropoxy)-1H-indazol-3-yl]pyridazin-3-one]
pKi (LRRK2 WT [1]): ≥ 8.00 | CC50 at 3 days [2]: > 10000 nM | pIC50 (LRRK2 WT [3]): ≥ 7.30 | pKi (LRRK2[G2019S] [4]): ≥ 8.30 | pIC50 (LRRK2[G2019S] [5]): ≥ 7.30

CC(C)Oc1ccc2[nH]nc(-c3cc(N4CCOCC4)c(=O)n(C(C)C)n3)c2c1 [Compound 21, 6-(5-isopropoxy-1H-indazol-3-yl)-2-isopropyl-4-morpholino-pyridazin-3-one]
pKi (LRRK2 WT [1]): ≥ 8.00 | pIC50 (LRRK2 WT [3]): ≤ 7.00 | pKi (LRRK2[G2019S] [4]): 8.00 to 8.30 | pIC50 (LRRK2[G2019S] [5]): 7.00 to 7.30

C[C@@H]1CN(c2cc(-c3n[nH]c4ccc(OC5(C)CC5)cc34)nn(C)c2=O)C[C@H](C)O1 [Compound 50, 4-[(2S,6R)-2,6-dimethylmorpholin-4-yl]-2-methyl-6-[5-(1-methylcyclopropoxy)-1H-indazol-3-yl]pyridazin-3-one]
pKi (LRRK2 WT [1]): ≥ 8.00 | CC50 at 3 days [2]: > 10000 nM | pIC50 (LRRK2 WT [3]): ≥ 7.30 | pKi (LRRK2[G2019S] [4]): ≥ 8.30 | pIC50 (LRRK2[G2019S] [5]): ≥ 7.30

C[C@@H]1CN(c2cc(-c3n[nH]c4ccc(OC5(C)CC5)cc34)nn(C3CC3)c2=O)C[C@H](C)O1 [Compound 51, 2-cyclopropyl-4-[(2S,6R)-2,6-dimethylmorpholin-4-yl]-6-[5-(1-methylcyclopropoxy)-1H-indazol-3-yl]pyridazin-3-one]
pKi (LRRK2 WT [1]): ≥ 8.00 | pIC50 (LRRK2 WT [3]): ≥ 7.30 | pKi (LRRK2[G2019S] [4]): ≥ 8.30 | pIC50 (LRRK2[G2019S] [5]): ≥ 7.30

CC(C)Oc1ccc2[nH]nc(-c3cc(N4CCOCC4)c(=O)n(C4CC4)n3)c2c1 [Compound 19, 2-cyclopropyl-6-(5-isopropoxy-1H-indazol-3-yl)-4-morpholino-pyridazin-3-one]
pKi (LRRK2 WT [1]): ≥ 8.00 | pIC50 (LRRK2 WT [3]): 7.00 to 7.30 | pKi (LRRK2[G2019S] [4]): ≥ 8.30 | pIC50 (LRRK2[G2019S] [5]): ≥ 7.30

CCn1nc(-c2n[nH]c3ccc(OC(C)C)cc23)cc(N2CCOCC2)c1=O [Compound 23, 2-ethyl-6-(5-isopropoxy-1H-indazol-3-yl)-4-morpholino-pyridazin-3-one]
pKi (LRRK2 WT [1]): ≥ 8.00 | pIC50 (LRRK2 WT [3]): ≤ 7.00 | pKi (LRRK2[G2019S] [4]): ≥ 8.30 | pIC50 (LRRK2[G2019S] [5]): 7.00 to 7.30

Cn1nc(-c2n[nH]c3ccc(OC4CC4)cc23)cc(N2CCOCC2)c1=O [Compound 30, 6-[5-(cyclopropoxy)-1H-indazol-3-yl]-2-methyl-4-morpholino-pyridazin-3-one]
pKi (LRRK2 WT [1]): ≥ 8.00 | pIC50 (LRRK2 WT [3]): ≤ 7.00 | pKi (LRRK2[G2019S] [4]): ≥ 8.30 | pIC50 (LRRK2[G2019S] [5]): ≤ 7.00

Cc1cc2[nH]nc(-c3cc(N4CCOCC4)c(=O)n(C)n3)c2cc1OC(C)C [Compound 26, 6-(5-isopropoxy-6-methyl-1H-indazol-3-yl)-2-methyl-4-morpholino-pyridazin-3-one]
pKi (LRRK2 WT [1]): ≥ 8.00 | pIC50 (LRRK2 WT [3]): ≤ 7.00 | pKi (LRRK2[G2019S] [4]): 7.30 to 8.00 | pIC50 (LRRK2[G2019S] [5]): ≤ 7.00
